Measurements taken from patent EP4426265B1, “OPHTHALMIC COMPOSITION COMPRISING A LUBRICANT AGENT AND VERBASCOSIDE, AND SAID COMPOSITION FOR USE IN THE PREVENTIVE OR CURATIVE TREATMENT OF A CORNEAL EPITHELIAL DEFECT AND/OR A CONJUNCTIVAL DEFECT IN A SUBJECT” (NOVAX PHARMA S.A.M., priority 2021, dated 2023).

Settings: not told

OB(O)O [Boric acid]
percentage average value (%av) of permeability: 0.9%

C[C@@H]1O[C@@H](O[C@@H]2[C@@H](O)[C@H](OCCc3ccc(O)c(O)c3)O[C@H](CO)[C@H]2OC(=O)/C=C/c2ccc(O)c(O)c2)[C@H](O)[C@H](O)[C@H]1O [VERBASCOSIDE, Verbascoside]
percentage average value (%av) of permeability: not measurable
